The results in this text go back to patent US20230416316A1, “ADP-RIBOSE BINDING PEPTIDES WITH ANTI-CANCER ACTIVITY AND USE THEREOF” (PearlsInMires Co., Ltd., priority 2021, published 2023).

What all share (format): cell-based
The subject of data set [1] is MDA-MB-231 cells. The data set can be described thus: Viability of MDA-MB-231 cells, docetaxel alone or combined with peptides. The note with it: 50 μM docetaxel alone, 24 hours. Here is the method:
(§1) After culturing 3×10^3 MDA-MB-231 cells in a 96-well plate for 24 hours under conditions of 37° C. and 5% CO2, the cells were treated with 50 μM docetaxel alone or in combination with the peptides of Examples 15 to 28 at a concentration of 0.2, 1 or 8 μM. Then, the cells were cultured for 24 hours under conditions of 37° C. and 5% CO2, 10 μl of 3-(4,5-dimethylthiazol-2-yl)-2,5-diphenyltetrazolium bromide reagent was added to each well, followed by reaction for 1 hour. After the reaction was completed, the reagent was removed, 200 μl of dimethyl sulfoxide was added to each well, and the absorbance was measured to confirm cell viability.

Another data set has as its system Aspc-1 cells. The data set can be described thus: Viability of Aspc-1 cells, gemcitabine alone or combined with peptides. To be noted: 1 nM gemcitabine alone, 24 hours. Here is the method: as §1, with “culturing 3×10^3 Aspc-1 cells in” for “culturing 3×10^3 MDA-MB-231 cells in”, “treated with 1 nM gemcitabine alone or” for “treated with 50 μM docetaxel alone or”, “5% CO2, and 10 μl” for “5% CO2, 10 μl”

Another data set relates to H1975 cells. The data set can be described thus: Viability of H1975 cells, osimertinib alone or combined with peptides. To be noted: Homo sapiens, NCI-H1975, 1 nM osimertinib alone, 24 hours, read-out: viable cancer cells. Here is the method: as §1, with “culturing 3×10^3 H1975 cells in” for “culturing 3×10^3 MDA-MB-231 cells in”, “treated with 1 nM osimertinib alone or” for “treated with 50 μM docetaxel alone or”, “of Examples 1 to 14” for “of Examples 15 to 28”, “1 to 14 at a” for “15 to 28 at a”, “5% CO2, and 10 μl” for “5% CO2, 10 μl”

Data set [2] has as its system MDA-MB-231 cells. The data set can be described thus: ADP-ribose level by ELISA in MDA-MB-231 cells. The note with it: 0.2-32 μM peptide, 24 hours. Here is the method:
(§2) The peptides of Examples 1 to 28 of the present disclosure are designed to inhibit the action of poly ADP-ribose degradation enzyme. In Experimental Example 1, it was confirmed through cell experiments whether poly ADP-ribose was inhibited from being degraded by each of the peptides and accumulated in cancer cells.
5×10^3 MDA-MB-231 cells were divided into a group not treated with the Example peptide and a group treated with 0.2, 1, 2, 4, 8, 16, and 32 μM of the peptide of Example 5 (SEQ ID NO: 5), and cultured for 24 hours under conditions of 37° C. and 5% CO2 in Leibovitz's L-15 medium supplemented with 10% FBS, 100 units/ml penicillin, and 100 μg/ml streptomycin. The medium of the cultured cells was removed, and the samples were treated with RIPA buffer and 1% SDS. The prepared supernatant was used for ELISA analysis to detect and analyze ADP-ribose.
(In general: An ELISA detects its analyte on a solid surface through an enzyme-linked reagent.)

For data set [3], the system named is MDA-MB-231 cells. The data set can be described thus: Cell viability (MTT, photomicrographs) in MDA-MB-231 cells. To be noted: 16 μM peptide, 24 hours. As to the method:
(§3) After culturing 3×10^3 MDA-MB-231 cells in a 96-well plate for 24 hours under conditions of 37° C. and 5% C02, the cells were either untreated or treated with the peptides of Examples 1 to 28 at a concentration of 16 μM, respectively. Then, the cells were cultured for 24 hours under conditions of 37° C. and 5% CO2, and 10 μl of 3-(4,5-dimethylthiazol-2-yl)-2,5-diphenyltetrazolium bromide reagent was added to each well, followed by reaction for 1 hour. After the reaction was completed, the reagent was removed, 200 μl of dimethyl sulfoxide was added to each well, and the absorbance was measured to confirm cell viability.

Data set [4] deals with Hep G2 cells. The data set can be described thus: Cell viability (MTT, photomicrographs) in Hep G2 cells. To be noted: 16 μM peptide, 24 hours. As to the method: 2-4. Change in viability in Hep G2 cells according to treatment with ADP-ribose binding peptide After culturing 3×10^3 Hep G2 cells in a 96-well plate for 24 hours under conditions of 37° C. and 5% CO2, the cells were either untreated or treated with the peptides of Examples 1 to 28 at a concentration of 16 μM, respectively. Then, the cells were cultured for 24 hours under conditions of 37° C. and 5% CO2, and 10 μl of 3-(4,5-dimethylthiazol-2-yl)-2,5-diphenyltetrazolium bromide reagent was added to each well, followed by reaction for 1 hour. After the reaction was completed, the reagent was removed, 200 μl of dimethyl sulfoxide was added to each well, and the absorbance was measured to confirm cell viability.

For data set [5], the system named is Hep G2 cells. The data set can be described thus: ADP-ribose level by ELISA in Hep G2 cells. The note with it: 0.2-32 μM peptide, 24 hours. As to the method: as §2
5×10^5 Hep G2 cells were divided into a group not treated with the peptide of Example and a group treated with 0.2, 1, 2, 4, 8, 16, and 32 μM of the peptide of Example 4 (SEQ ID NO: 4), and cultured for 24 hours under conditions of 37° C. and 5% CO2 in EMEM medium supplemented with 10% FBS, 100 units/ml penicillin, and 100 μg/ml streptomycin. The medium of the cultured cells was removed, and the samples were treated with RIPA buffer and 1% SDS. The prepared supernatant was used for ELISA analysis to detect and analyze ADP-ribose.

The subject of the next data set is HDPC. The data set can be described thus: Cytotoxicity in normal cells HDPC. To be noted: HDPC human dermal papilla cell, 25, 50 and 100 μM, 24, 48 or 72 hours; listed as SEQ ID NO: 7. As to the method: (§4) As normal cells for testing, CCD-18Co, which is a human colon fibroblast, and HDPC, which is a human dermal papilla cell, were used. Further, the peptide of SEQ ID NO: 7 was used as a representative peptide of Examples of the present disclosure.
(§5) First, 5×10^3 cells of each normal cell were inoculated into a 96-well plate and cultured in DMEM medium for 24 hours under conditions of 37° C. and 5% CO2. The respective wells were divided into a group untreated with the peptide and groups treated with the peptide of SEQ ID NO: 7 (25, 50, and 100 μM, respectively), and tested.

The test system of a further data set is CCD-18Co. The data set can be described thus: Cytotoxicity in normal cells CCD-18Co. The note with it: CCD-18Co human colon fibroblast, 25, 50 and 100 μM, 24, 48 or 72 hours; listed as SEQ ID NO: 7. As to the method: as §4, §5
Data set [6] relates to HCT116 cells. The data set can be described thus: ADP-ribose level by ELISA in HCT116 cells. The note with it: 0.2-32 μM peptide, 24 hours. As to the method:
as §2
5×10^5 HCT116 cells were divided into a group not treated with the peptide of Example and a group treated with 0.2, 1, 2, 4, 8, 16, and 32 μM of the peptide of Example 6 (SEQ ID NO: 6), and cultured for 24 hours under conditions of 37° C. and 5% CO2 in McCoy's 5A medium supplemented with 10% FBS, 100 units/ml penicillin, and 100 μg/ml streptomycin. The medium of the cultured cells was removed, and the samples were treated with RIPA buffer and 1% SDS. The prepared supernatant was used for ELISA analysis to detect and analyze ADP-ribose.

The test system of data set [7] is HCT116 cells. The data set can be described thus: Cell viability (MTT, photomicrographs) in HCT116 cells. The note with it: 16 μM peptide, 24 hours. As to the method: as §3, with “HCT116” for “MDA-MB-231”, “CO2,” for “C02,”
In data set [8] the test system is Caki-1 cells. The data set can be described thus: Cell viability (MTT, photomicrographs) in Caki-1 cells. The note with it: 16 μM peptide, 24 hours. Here is the method:
as §3, with “Caki-1” for “MDA-MB-231”, “CO2,” for “C02,”

Data set [9] relates to Caki-1 cells. The data set can be described thus: ADP-ribose level by ELISA in Caki-1 cells. The note with it: 0.2-32 μM peptide, 24 hours. As to the method:
as §2
5×10^5 Caki-1 cells were divided into a group not treated with the peptide of Example and a group treated with 0.2, 1, 2, 4, 8, 16, and 32 μM of the peptide of Example 7 (SEQ ID NO: 7), and cultured for 24 hours under conditions of 37° C. and 5% CO2 in McCoy's 5A medium supplemented with 10% FBS, 100 units/ml penicillin, and 100 μg/ml streptomycin. The medium of the cultured cells was removed, and the samples were treated with RIPA buffer and 1% SDS. The prepared supernatant was used for ELISA analysis to detect and analyze ADP-ribose.

A further data set has as its system U-87MG cells. The data set can be described thus: Viability of U-87MG cells, bevacizumab alone or combined with peptides. On the set-up: dose or concentration left out as unconfirmed. To be noted: bevacizumab alone, 24 hours. As to the method:
as §1, with “culturing 3×10^3 U-87MG cells in” for “culturing 3×10^3 MDA-MB-231 cells in”, “treated with 18 mM of bevacizumab alone or” for “treated with 50 μM docetaxel alone or”, “of Examples 1 to 14” for “of Examples 15 to 28”, “1 to 14 at a” for “15 to 28 at a”, “5% CO2, and 10 μl” for “5% CO2, 10 μl”

“Also recorded” adds a separate entry of the source. Ends that are not written are not given here.

On to `CC(=O)O[C@@]12CO[C@@H]1C[C@H](O)[C@@]1(C)C(=O)[C@H](O)C3=C(C)[C@@H](OC(=O)[C@H](O)[C@@H](NC(=O)OC(C)(C)C)c4ccccc4)C[C@@](O)([C@@H](OC(=O)c4ccccc4)[C@H]21)C3(C)C` [docetaxel], for which the cancer cells survived entry in the data set on MDA-MB-231 cells [1] was “about 52%”.
On to `Nc1ccn([C@@H]2O[C@H](CO)[C@@H](O)C2(F)F)c(=O)n1` [gemcitabine], for which the cancer cells survived entry with Aspc-1 cells is on record as “about 50%”.
For `C=CC(=O)Nc1cc(Nc2nccc(-c3cn(C)c4ccccc34)n2)c(OC)cc1N(C)CCN(C)C` [osimertinib], the viability at 0.001 µM in the data set on H1975 cells was roughly 49%.
Consider “FCYLIYFNSMSQMNRQTRRRRRLRR (ADP-ribose binding peptide) [Example 5]”, for which the “amount of increase in ADP-ribose (fold change) compared to the control group” value in the data set on MDA-MB-231 cells [2] was “significant increase in the amount of ADP-ribose in a concentration-dependent manner”. In the data set on MDA-MB-231 cells [3], the “cancer cell growth and survival” value was “inhibited from growing and killed”.
As to “FLYVADLENMVQYRRNEHGRRRKIKR (ADP-ribose binding peptide) [Example 11]”, the “cancer cell growth and survival” value in the data set on Hep G2 cells [4] was “inhibited from growing and killed”. For the same compound, the “amount of increase in ADP-ribose (fold change) compared to the control group” value with Hep G2 cells [5] was “significant increase in the amount of ADP-ribose in a concentration-dependent manner”.
Regarding FSYKIDFAEMKQMNLTTGKQRLIKR [Example 7], the “cytotoxicity to normal cells versus untreated control” value in the data set on HDPC and in the data set with CCD-18Co was “no significant difference; also recorded: no toxicity was shown” in each case.
Regarding FSYVIDENTMGQINRQTQRQRRVRR [Example 6], the “amount of increase in ADP-ribose (fold change) compared to the control group” value with HCT116 cells [6] is “significant increase in the amount of ADP-ribose in a concentration-dependent manner”. Also, the “cancer cell growth and survival” value in the data set with HCT116 cells [7] is “inhibited from growing and killed”.
With “GRYDVHLGERMRYAVYWDELASEVRR (ADP-ribose binding peptide) [Example 13]”, the “amount of increase in ADP-ribose (fold change) compared to the control group” value in the data set on HCT116 cells [6] is on record as “significant increase in the amount of ADP-ribose in a concentration-dependent manner”. The “cancer cell growth and survival” value with HCT116 cells [7] is “inhibited from growing and killed”.
As to “RHYTVNLNTYTATDTKGHSLSVQR (ADP-ribose binding peptide) [Example 12]”, the “amount of increase in ADP-ribose (fold change) compared to the control group” value in the data set on MDA-MB-231 cells [2] is “significant increase in the amount of ADP-ribose in a concentration-dependent manner”. The “cancer cell growth and survival” value with MDA-MB-231 cells [3] was “inhibited from growing and killed”.
In the case of “RVYTIDENSMQQINEDTGTARAIQR (RVYTIDFNSMQQINEDTGTARAIQR; ADP-ribose binding peptide) [Example 4]”, in the data set with Hep G2 cells [4], the “cancer cell growth and survival” value was “inhibited from growing and killed”. In the data set with Hep G2 cells [5], the “amount of increase in ADP-ribose (fold change) compared to the control group” value is reported as “significant increase in the amount of ADP-ribose in a concentration-dependent manner”.
Consider “TAYEASVCDYLEQQVARGN (ADP-ribose binding peptide) [Example 14]”, for which the “cancer cell growth and survival” value in the data set on Caki-1 cells [8] is “inhibited from growing and killed”. For the same compound, the “amount of increase in ADP-ribose (fold change) compared to the control group” value in the data set on Caki-1 cells [9] is “significant increase in the amount of ADP-ribose in a concentration-dependent manner”.
With bevacizumab, in the data set on U-87MG cells, the viable cancer cells entry was “about 49%”.
